# Reference: patent US20150250166A1, “NOOTKATONE AS AN INSECTICIDE AND INSECT REPELLENT” (ALLYLIX, INC., priority 2012, published 2015)
# System: adult bed bugs (Cimex lectularius)
# Experiment: Bed bug repellency, treated versus untreated filter paper halves in Petri dish chamber
# Format: in vivo
# Conditions: for Repellency (%) Treatment Group / bed bugs on Nootkatone treatment filter paper (count, of 50) / Repellency (summary of bedbug repellency): 0.1% BHT; for Corrected 0.25% nootkatone repellency / bed bugs on 0.25% Nootkatone-treated filter paper, average count (of 10) / Corrected 1% nootkatone repellency / bed bugs on 1% Nootkatone-treated filter paper, average count (of 10): 0.1% BHT in ethanol, dried paper; for Nootkatone Repellency / bed bugs on nootkatone-treated filter paper (count, of 50): 5% Nootkatone in acetone, 0.1% BHT (title; column head prints 10%); for Nootkatone Repellency (corrected for isopropanol control) / bed bugs on 10% Nootkatone-treated filter paper, average count of five trials (of 10): 10% nootkatone, 0.1% BHT in isopropanol
# Protocol: A formulation, containing 10% nootkatone, 0.1% butylated hydroxytoluene (BHT) in isopropanol was tested for efficacy for repelling adult bed bugs (Cimex lectularius). Treatment chambers were created by cutting a circular hole in the bottom of 15-cm Petri dishes. A fine mesh nylon cloth was then glued to Petri dishes, covering the holes. The chambers were formed using the inverted Petri dishes with the screened bottoms serving as the tops and the lids forming the base of the chambers. The lids were secured with rubber bands.
# Five semi-circular pieces of filter paper, with a diameter of 15 cm, were arranged so that they were evenly spaced on a sheet of aluminum foil. Equal amounts of 10% nootkatone solution, stored at ambient temperature and humidity, were applied to the filter papers until they were wet to the point of runoff. Five untreated semi-circular pieces were marked with the letter “c”, for control, on both sides in pencil or solvent resistant ink. One nootkatone-treated filter paper and one untreated filter paper were placed with the flat sides against each other, creating a full circle, in the lids of five 15-cm Petri dishes, serving as the treatment chambers described above, such that the entire surface of the lid was covered. Immediately after placing the filter paper semi-circles into the lid, 10 bed bugs, having received a blood meal no more than 7 days before, were placed onto the untreated piece of paper and covered with the ventilated base of the Petri dish. The containers of each replicate were then kept at ambient laboratory temperature and humidity for the duration of the study. The distribution of the bed bugs on the treated and untreated filter papers was recorded at 0.5, 1, 1.5, 2, and 24 hours after being placed in the containers. Observations were made in darkness with the aid of a red lens flashlight. Gloves and a dust mask were worn by the observer to reduce detection of the bed bugs and to minimize disturbance caused by the observer. Five additional treatment chambers were created as described above, except the treated filter paper was soaked with isopropyl alcohol (control treatment), instead of the 10% nootkatone solution. Bed bug distribution in the control chambers were recorded as described for the treatment condition.
# The nootkatone treatment repellency was calculated from the following equation: R=[(C−T)/C]*100, where R is the % repellency, C is the fraction of bed bugs on the isopropanol-treated filter papers, and T is the fraction of bed bugs on the nootkatone-treated filter papers.
# A formulation, containing 5% nootkatone, 0.1% butylated hydroxytoluene (BHT) in acetone was tested for efficacy for repelling adult bed bugs (Cimex lectularius) using the methods as described above.
# The duration of 1% and 0.25% nootkatone […] repellent effects was evaluated in this example. Bed bug (Cimex lectularius) treatment chambers were created as described in part A above, except using 9-cm Petri dishes and semicircles of filter paper with a diameter of 9 cm. Five replicate semicircles of filter paper were treated with 1 ml 1.0% nootkatone, 0.1% BHT in ethanol; 0.25% nootkatone, 0.1% BHT in ethanol; or ethanol alone (control), and placed side by side with untreated filter papers (marked with a “c”) in Petri dishes so that the lid surfaces were completely covered as previously described in part A. Prior to addition of the bed bugs, the filter papers were confirmed to be completely dry and free of any residual ethanol odor.
# Following chamber preparation, 10 bed bugs, having received a blood meal no more than 7 days prior, were added to each chamber on the untreated filter paper as described above. Distribution of the 10 bed bugs per chamber was recorded at 0.5, 1, 1.5, 2, and 24 hours following treatment (Day 1). At the end of 24 hours, the old bed bugs were removed from the Petri dish and 10 new bed bugs were added. […]
# [1] = 0.01% nootkatone in acetone, Day 1, 0.5 hour
# [2] = 0.01% nootkatone in acetone, Day 1, 1.5 hour
# [3] = 0.01% nootkatone in acetone, Day 1, 2.0 hour
# [4] = 0.01% nootkatone in acetone, Day 1, Average of time points
# [5] = 0.01% nootkatone in acetone, Day 2, 0.5 hour
# [6] = 0.01% nootkatone in acetone, Day 2, 1.0 hour
# [7] = 0.01% nootkatone in acetone, Day 2, 1.5 hour
# [8] = 0.01% nootkatone in acetone, Day 2, 2.0 hour
# [9] = 0.01% nootkatone in acetone, Day 2, 24.0 hour
# [10] = 0.01% nootkatone in acetone, Day 2, Average of time points
# [11] = 0.10% nootkatone in acetone, Day 1, 1.0 hour
# [12] = 0.10% nootkatone in acetone, Day 1, 1.5 hour
# [13] = 0.10% nootkatone in acetone, Day 1, 24.0 hour
# [14] = 0.10% nootkatone in acetone, Day 1, Average of time points
# [15] = 0.10% nootkatone in acetone, Day 2, 0.5 hour
# [16] = 0.10% nootkatone in acetone, Day 2, 1.0 hour
# [17] = 0.10% nootkatone in acetone, Day 2, 1.5 hour
# [18] = 0.10% nootkatone in acetone, Day 2, 2.0 hour
# [19] = 0.10% nootkatone in acetone, Day 2, 24.0 hour
# [20] = 0.10% nootkatone in acetone, Day 2, Average of time points
# [21] = 0.50% nootkatone in acetone, Day 1, 1.0 hour
# [22] = 0.50% nootkatone in acetone, Day 1, 1.5 hour
# [23] = 0.50% nootkatone in acetone, Day 1, 2.0 hour
# [24] = 0.50% nootkatone in acetone, Day 1, 24.0 hour
# [25] = 0.50% nootkatone in acetone, Day 2, 0.5 hour
# [26] = 0.50% nootkatone in acetone, Day 2, 1.5 hour
# [27] = 0.50% nootkatone in acetone, Day 2, 2.0 hour
# [28] = 0.50% nootkatone in acetone, Day 2, 24.0 hour
smiles,measurement,setting,value
"C=C(C)[C@@H]1CCC2=CC(=O)C[C@@H](C)[C@]2(C)C1 [nootkatone, 4,4a,5,6,7,8-hexahydro-6-isopropenyl-4,4a-dimethyl-2(3H)-naphtalenone]",Repellency (%) Treatment Group,[1],68.0%
same,"bed bugs on Nootkatone treatment filter paper (count, of 50)",[1],16
same,"bed bugs on Nootkatone treatment filter paper (count, of 50)","0.01% nootkatone in acetone, Day 1, 1.0 hour",17
same,Repellency (%) Treatment Group,[2],66.0%
same,"bed bugs on Nootkatone treatment filter paper (count, of 50)",[2],17
same,Repellency (%) Treatment Group,[3],72.0%
same,"bed bugs on Nootkatone treatment filter paper (count, of 50)",[3],14
same,Repellency (%) Treatment Group,"0.01% nootkatone in acetone, Day 1, 24.0 hour",58.0%
same,Repellency (%) Treatment Group,[4],66.0%
same,"bed bugs on Nootkatone treatment filter paper (count, of 50)",[4],17.0
same,Repellency (%) Treatment Group,[5],82.0%
same,"bed bugs on Nootkatone treatment filter paper (count, of 50)",[5],9
same,Repellency (%) Treatment Group,[6],72.0%
same,"bed bugs on Nootkatone treatment filter paper (count, of 50)",[6],14
same,Repellency (%) Treatment Group,[7],62.0%
same,"bed bugs on Nootkatone treatment filter paper (count, of 50)",[7],19
same,Repellency (%) Treatment Group,[8],64.0%
same,"bed bugs on Nootkatone treatment filter paper (count, of 50)",[8],18
same,Repellency (%) Treatment Group,[9],62.0%
same,"bed bugs on Nootkatone treatment filter paper (count, of 50)",[9],19
same,Repellency (%) Treatment Group,[10],68.4%
same,"bed bugs on Nootkatone treatment filter paper (count, of 50)",[10],15.8
same,"bed bugs on Nootkatone treatment filter paper (count, of 50)","0.10% nootkatone in acetone, Day 1, 0.5 hour",3
same,Repellency (%) Treatment Group,[11],92.0%
same,"bed bugs on Nootkatone treatment filter paper (count, of 50)",[11],4
same,Repellency (%) Treatment Group,[12],90.0%
same,"bed bugs on Nootkatone treatment filter paper (count, of 50)",[12],5
same,"bed bugs on Nootkatone treatment filter paper (count, of 50)","0.10% nootkatone in acetone, Day 1, 2.0 hour",3
same,Repellency (%) Treatment Group,[13],98.0%
same,"bed bugs on Nootkatone treatment filter paper (count, of 50)",[13],1
same,Repellency (%) Treatment Group,[14],93.6%
same,"bed bugs on Nootkatone treatment filter paper (count, of 50)",[14],3.2
same,Repellency (%) Treatment Group,[15],72.0%
same,"bed bugs on Nootkatone treatment filter paper (count, of 50)",[15],14
same,Repellency (%) Treatment Group,[16],70.0%
same,"bed bugs on Nootkatone treatment filter paper (count, of 50)",[16],15
same,Repellency (%) Treatment Group,[17],74.0%
same,"bed bugs on Nootkatone treatment filter paper (count, of 50)",[17],13
same,Repellency (%) Treatment Group,[18],70.0%
same,"bed bugs on Nootkatone treatment filter paper (count, of 50)",[18],15
same,Repellency (%) Treatment Group,[19],82.0%
same,"bed bugs on Nootkatone treatment filter paper (count, of 50)",[19],9
same,Repellency (%) Treatment Group,[20],73.6%
same,"bed bugs on Nootkatone treatment filter paper (count, of 50)",[20],13.2
same,"bedbug repellency, in words","0.1% nootkatone in acetone, day two",moderate (statistically significant) repellent
same,"bedbug repellency, in words",0.25% nootkatone in ethanol,not sufficient to repel bed bugs
same,Corrected 0.25% nootkatone repellency,Day 1,19%
same,"bed bugs on 0.25% Nootkatone-treated filter paper, average count (of 10)",Day 1,2.68
same,Corrected 0.25% nootkatone repellency,Day 2,23%
same,"bed bugs on 0.25% Nootkatone-treated filter paper, average count (of 10)",Day 2,4.2
same,Corrected 0.25% nootkatone repellency,Day 3,49%
same,"bed bugs on 0.25% Nootkatone-treated filter paper, average count (of 10)",Day 3,2.32
same,Corrected 0.25% nootkatone repellency,Day 4,−14%
same,"bed bugs on 0.25% Nootkatone-treated filter paper, average count (of 10)",Day 4,4
same,Repellency (%) Treatment Group,[21],100.0%
same,"bed bugs on Nootkatone treatment filter paper (count, of 50)",[21],0
same,Repellency (%) Treatment Group,[22],100.0%
same,"bed bugs on Nootkatone treatment filter paper (count, of 50)",[22],0
same,Repellency (%) Treatment Group,[23],100.0%
same,"bed bugs on Nootkatone treatment filter paper (count, of 50)",[23],0
same,Repellency (%) Treatment Group,[24],100.0%
same,"bed bugs on Nootkatone treatment filter paper (count, of 50)",[24],0
same,Repellency (%) Treatment Group,"0.50% nootkatone in acetone, Day 1, Average of time points",100.0%
same,Repellency (%) Treatment Group,[25],86.0%
same,"bed bugs on Nootkatone treatment filter paper (count, of 50)",[25],7
same,"bed bugs on Nootkatone treatment filter paper (count, of 50)","0.50% nootkatone in acetone, Day 2, 1.0 hour",6
same,Repellency (%) Treatment Group,[26],94.0%
same,"bed bugs on Nootkatone treatment filter paper (count, of 50)",[26],3
same,Repellency (%) Treatment Group,[27],98.0%
same,"bed bugs on Nootkatone treatment filter paper (count, of 50)",[27],1
same,Repellency (%) Treatment Group,[28],92.0%
same,"bed bugs on Nootkatone treatment filter paper (count, of 50)",[28],4
same,Repellency (%) Treatment Group,"0.50% nootkatone in acetone, Day 2, Average of time points",91.6%
same,duration of bed bug repellency following treatment,1% nootkatone in ethanol on filter paper,about 4 days
same,Corrected 1% nootkatone repellency,Day 1,93%
same,"bed bugs on 1% Nootkatone-treated filter paper, average count (of 10)",Day 1,0.24
same,Corrected 1% nootkatone repellency,Day 2,66%
same,"bed bugs on 1% Nootkatone-treated filter paper, average count (of 10)",Day 2,1.84
same,Corrected 1% nootkatone repellency,Day 3,81%
same,"bed bugs on 1% Nootkatone-treated filter paper, average count (of 10)",Day 3,0.88
same,Corrected 1% nootkatone repellency,Day 4,84%
same,"bed bugs on 1% Nootkatone-treated filter paper, average count (of 10)",Day 4,0.56
same,Corrected 1% nootkatone repellency,Day 5,68%
same,"bed bugs on 1% Nootkatone-treated filter paper, average count (of 10)",Day 5,1.52
same,Corrected 1% nootkatone repellency,Day 6,20%
same,"bed bugs on 1% Nootkatone-treated filter paper, average count (of 10)",Day 6,2.24
same,Corrected 1% nootkatone repellency,Day 7,63%
same,"bed bugs on 1% Nootkatone-treated filter paper, average count (of 10)",Day 7,1.84
same,Nootkatone Repellency,0.5 hr,100.0%
same,"bed bugs on nootkatone-treated filter paper (count, of 50)",0.5 hr,0
same,Nootkatone Repellency,1 hr,100.0%
same,"bed bugs on nootkatone-treated filter paper (count, of 50)",1 hr,0
same,Nootkatone Repellency,1.5 hr,100.0%
same,"bed bugs on nootkatone-treated filter paper (count, of 50)",1.5 hr,0
same,Nootkatone Repellency,2 hr,100.0%
same,"bed bugs on nootkatone-treated filter paper (count, of 50)",2 hr,0
same,Nootkatone Repellency,24 hr,100.0%
same,"bed bugs on nootkatone-treated filter paper (count, of 50)",24 hr,0
same,Nootkatone Repellency,Averages of time points,100.0%
same,"bed bugs on nootkatone-treated filter paper (count, of 50)",Averages of time points,0
same,"bed bug repellency compared with acetone alone, in words",5% nootkatone in acetone,repels bed bugs to a greater extent than that observed for acetone alone
same,"bed bug repellency compared with isopropanol alone, in words",10% nootkatone in isopropyl alcohol,repels bed bugs to a greater extent than that observed for isopropanol alone
same,Nootkatone Repellency (corrected for isopropanol control),0.5 hr,85.7%
same,"bed bugs on 10% Nootkatone-treated filter paper, average count of five trials (of 10)",0.5 hr,0.4
same,Nootkatone Repellency (corrected for isopropanol control),1 hr,100.0%
same,"bed bugs on 10% Nootkatone-treated filter paper, average count of five trials (of 10)",1 hr,0
same,Nootkatone Repellency (corrected for isopropanol control),1.5 hr,100.0%
same,"bed bugs on 10% Nootkatone-treated filter paper, average count of five trials (of 10)",1.5 hr,0
same,Nootkatone Repellency (corrected for isopropanol control),2 hr,100.0%
same,"bed bugs on 10% Nootkatone-treated filter paper, average count of five trials (of 10)",2 hr,0
same,Nootkatone Repellency (corrected for isopropanol control),24 hr,100.0%
same,"bed bugs on 10% Nootkatone-treated filter paper, average count of five trials (of 10)",24 hr,0
same,Repellency (summary of bedbug repellency),"Nootkatone 0.010% in acetone, Day 2",68.0%
same,Repellency (summary of bedbug repellency),"Nootkatone 0.10% in acetone, Day 2",73.6%
same,Repellency (summary of bedbug repellency),"Nootkatone 0.50% in acetone, Day 1",100.0%
same,Repellency (summary of bedbug repellency),"Nootkatone 0.50% in acetone, Day 2",91.6%
